Laboratory results as given in patent US8987216B2, “Polysulfated glycosides and salts thereof” (Teva Hungary Pharmaceutical Marketing Private Limited …, priority 2004, dated 2015).
Where a name gives a salt, the structure may show the parent alone. Read-outs that look alike come from different tables or passages of the source.

Columns and labels:
[1] = tested on: BN rats; assay: Effect on the extent of perivascular oedema developed in asthmatic lung tissue; format: in vivo, Brown Norway (BN) rats; details: Control 55 ± 6, Challenge 209 ± 12
Experimental: Sensitized BN rats were treated intratracheally with varying (0.01-1.0 mg/kg) dose of compound described in example 4, two hours before antigenic challenge, using a similar protocol described in Model 1. Lungs were collected […] and were fixed in 8% phosphate buffered formaldehyde. Samples were then processed for histochemistry routinely. 5 μm thick sections were stained with periodic-acid-Schiff (PAS) reagents and were counterstained with haematoxylineosine. On the 5 μm sections, the area of the connective tissue around the vasculare was determined and expressed as a ratio of the area of the corresponding blood vessel itself.

[2] = tested on: BN-rats; assay: Effect of locally (intratracheally) administered polysulfated glycosides on airways' hyperresponsiveness ex vivo (tracheal contraction to acetylcholine after antigen challenge); format: in vivo, Brown Norway (BN) rats; details: Control 100 ± 0, Placebo 334 ± 68
Experimental: Brown Norway (BN) rats were actively sensitized to ovalbumin (OA) by a subcutaneous injection of 0.5 ml of OA/A1(OH)3 gel mixture (2 mg OA+10 g A1(OH)3/100 ml saline) on day 1 with subsequent subcutaneous injections (10 mg OA+10 g A1(OH)3/100 ml saline) given on days 14 and 21. On day 28, animals received the compound described in example 4 intratracheally (0.01; 0.1 or 1.0 mg/kg dose) 2 hours before antigen challenge. Antigen challenge was performed by inhalation of nebulised ovalbumin (1% antigen solution administered in a TSE inhalation system for 1 hour). Animals were sacrificed 48 hours post antigen challenge wherein the tracheas were removed to an organ bath. Dissected tracheas were allowed to equilibrate for 30 minutes before measuring tracheal spasmogenic response curves to acetylcholine (Ach).
As shown in Table 1 ovalbumin challenge of sensitized animals in this model caused a significant tracheal hyper-reactivity to acetylcholine, when the response to the spasmogenic agent was determined 48 h after antigen challenge.

[3] = tested on: BN rats; assay: Effect on the allergen stimulated mucus production of airways epithelial cells (PAS(+) cell count in lung sections); format: in vivo, Brown Norway (BN) rats; details: lungs 48 hours after challenge, Control 2.2 ± 0.9, Challenge 15.8 ± 2.8
Experimental: Sensitized BN rats were treated intratracheally with varying (0.01-1.0 mg/kg) dose of compound described in example 4, two hours before antigenic challenge, using a similar protocol described in Model 1. Lungs were collected 48 hours after challenge and were fixed in 8% phosphate buffered formaldehyde. Samples were then processed for histochemistry routinely. 5 μm thick sections were stained with periodic-acid-Schiff (PAS) reagents and were counterstained with haematoxylineosine. On the sections each epithelial cells of the airways were counted in the whole preparation at a magnification of 400×. The number of PAS(+) [mucus producing] epithelial cells was expressed as the ratio of the total number of epithelial cells.
As it is shown in Table 2, allergen challenge stimulates the mucus production of airways epithelial cells (control vs. challenge).

[4] = target: T1, IP-3 receptor (Rattus norvegicus, UniProt P29994); assay: IP-3 receptor antagonistic effect: inhibition of IP3 binding to its receptor in rat cerebellum membrane preparations
T1 construct: determined using rat cerebellum membrane preparations; from tissue; host or cells: rat cerebellum (microsomal membrane preparation)
T1 sequence (P29994 whole entry): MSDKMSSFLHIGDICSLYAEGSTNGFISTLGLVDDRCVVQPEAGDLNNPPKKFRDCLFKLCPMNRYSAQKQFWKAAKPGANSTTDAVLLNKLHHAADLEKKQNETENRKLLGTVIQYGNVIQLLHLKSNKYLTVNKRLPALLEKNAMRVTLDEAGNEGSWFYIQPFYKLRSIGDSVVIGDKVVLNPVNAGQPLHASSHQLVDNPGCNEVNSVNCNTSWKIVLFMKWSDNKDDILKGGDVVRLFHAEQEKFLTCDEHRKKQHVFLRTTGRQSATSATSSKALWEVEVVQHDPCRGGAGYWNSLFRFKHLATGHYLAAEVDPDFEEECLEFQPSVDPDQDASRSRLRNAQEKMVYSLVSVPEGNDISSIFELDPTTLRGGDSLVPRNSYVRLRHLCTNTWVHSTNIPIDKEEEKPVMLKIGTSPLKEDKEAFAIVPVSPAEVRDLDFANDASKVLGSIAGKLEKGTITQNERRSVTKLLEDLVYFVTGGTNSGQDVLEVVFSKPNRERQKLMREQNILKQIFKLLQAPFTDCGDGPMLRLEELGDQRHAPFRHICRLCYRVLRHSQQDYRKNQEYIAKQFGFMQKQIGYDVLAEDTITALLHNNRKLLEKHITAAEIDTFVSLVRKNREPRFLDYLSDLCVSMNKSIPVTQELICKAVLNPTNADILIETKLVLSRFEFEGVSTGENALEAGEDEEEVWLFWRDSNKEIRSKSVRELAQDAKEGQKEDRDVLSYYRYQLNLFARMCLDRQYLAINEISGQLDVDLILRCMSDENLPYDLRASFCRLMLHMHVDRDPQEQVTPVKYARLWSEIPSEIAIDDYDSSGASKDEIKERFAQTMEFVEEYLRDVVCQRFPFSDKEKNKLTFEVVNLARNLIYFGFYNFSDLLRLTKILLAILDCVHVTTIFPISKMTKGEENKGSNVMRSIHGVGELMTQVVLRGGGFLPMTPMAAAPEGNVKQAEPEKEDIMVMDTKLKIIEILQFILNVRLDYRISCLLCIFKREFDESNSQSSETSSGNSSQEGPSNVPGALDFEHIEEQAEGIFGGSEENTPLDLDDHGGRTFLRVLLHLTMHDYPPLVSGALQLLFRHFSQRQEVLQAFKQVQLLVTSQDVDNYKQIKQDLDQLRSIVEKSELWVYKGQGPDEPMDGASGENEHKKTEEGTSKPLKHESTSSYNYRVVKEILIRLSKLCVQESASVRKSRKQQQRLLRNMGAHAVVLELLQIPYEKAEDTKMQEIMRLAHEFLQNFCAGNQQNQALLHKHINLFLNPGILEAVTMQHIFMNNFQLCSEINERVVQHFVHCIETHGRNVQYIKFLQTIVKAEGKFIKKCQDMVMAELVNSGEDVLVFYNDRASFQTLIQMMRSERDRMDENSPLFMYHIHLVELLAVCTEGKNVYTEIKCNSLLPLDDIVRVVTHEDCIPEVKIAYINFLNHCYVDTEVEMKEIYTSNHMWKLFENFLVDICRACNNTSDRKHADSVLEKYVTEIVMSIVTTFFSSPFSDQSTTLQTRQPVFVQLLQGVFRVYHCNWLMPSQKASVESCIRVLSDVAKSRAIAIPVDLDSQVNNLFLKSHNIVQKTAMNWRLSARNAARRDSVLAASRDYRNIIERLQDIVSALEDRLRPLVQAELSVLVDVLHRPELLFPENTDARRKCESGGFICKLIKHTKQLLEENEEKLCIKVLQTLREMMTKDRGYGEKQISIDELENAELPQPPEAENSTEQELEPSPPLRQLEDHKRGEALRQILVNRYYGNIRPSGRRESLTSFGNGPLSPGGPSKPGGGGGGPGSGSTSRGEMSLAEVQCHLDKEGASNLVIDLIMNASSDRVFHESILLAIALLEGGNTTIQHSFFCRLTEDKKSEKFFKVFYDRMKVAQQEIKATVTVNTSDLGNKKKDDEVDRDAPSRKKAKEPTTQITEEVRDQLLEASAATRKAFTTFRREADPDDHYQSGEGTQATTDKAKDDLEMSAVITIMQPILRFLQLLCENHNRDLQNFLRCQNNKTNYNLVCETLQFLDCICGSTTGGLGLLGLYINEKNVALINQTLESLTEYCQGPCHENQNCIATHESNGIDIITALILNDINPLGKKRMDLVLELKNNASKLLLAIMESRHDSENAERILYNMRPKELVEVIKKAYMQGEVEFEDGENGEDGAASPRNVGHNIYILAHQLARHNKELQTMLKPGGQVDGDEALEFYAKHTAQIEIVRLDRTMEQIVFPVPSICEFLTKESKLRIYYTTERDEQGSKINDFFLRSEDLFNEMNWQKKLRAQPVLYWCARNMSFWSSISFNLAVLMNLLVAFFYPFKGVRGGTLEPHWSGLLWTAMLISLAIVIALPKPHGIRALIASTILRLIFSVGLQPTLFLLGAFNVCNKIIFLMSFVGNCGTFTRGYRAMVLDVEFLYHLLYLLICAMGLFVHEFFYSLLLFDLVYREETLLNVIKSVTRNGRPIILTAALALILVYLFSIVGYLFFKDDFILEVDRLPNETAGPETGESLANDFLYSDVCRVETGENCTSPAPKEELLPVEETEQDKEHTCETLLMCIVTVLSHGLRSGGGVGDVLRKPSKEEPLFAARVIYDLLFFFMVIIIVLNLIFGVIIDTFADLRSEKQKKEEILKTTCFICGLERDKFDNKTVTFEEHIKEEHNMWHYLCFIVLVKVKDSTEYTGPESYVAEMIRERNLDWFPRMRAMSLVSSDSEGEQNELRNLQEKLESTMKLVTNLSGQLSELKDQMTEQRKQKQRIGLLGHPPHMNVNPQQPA
Experimental: Glycosides of the present invention, depending on their chemical structure, inhibit the binding of inositol-1,4,5-trisphosphate (IP3) to its receptor in microsomal membrane preparations. As IP3 is a messenger molecule playing distinguished role in the activation of different cells, interfering with this function can explain the anti-asthmatic effect of these polysulfated glycosides.
The IP3 antagonist effect of the polysulfated glycosides were determined using rat cerebellum membrane preparations according to Worley et al. (JBC 262, 12132, 1987).

[5] = 0.01 mg/kg intratracheally two hours before antigenic challenge
[6] = 0.1 mg/kg intratracheally two hours before antigenic challenge

**Q.** What does the source list for `O=S(=O)(O)OC[C@H](OS(=O)(=O)O)[C@@H](O[C@@H]1O[C@H](COS(=O)(=O)O)[C@@H](OS(=O)(=O)O)[C@H](OS(=O)(=O)O)[C@H]1OS(=O)(=O)O)[C@H](OS(=O)(=O)O)[C@@H](COS(=O)(=O)O)OS(=O)(=O)O` [Example 4, 1,2,4,5,6-penta-O-sulfato-3-O-(2,3,4,6-tetra-β-sulfato-β-D-glucopyranosyl)-D-glucitol nona potassium salt]?
**A.** Oedema: area of oedema relative to area of vasculature (average ± SEM) [1, 5]: 113 ± 7; Oedema: area of oedema relative to area of vasculature (average ± SEM) [1, 6]: 106 ± 8; MAX: Contraction at maximal Ach concentration relative to control (mean ± SEM) ([2]; 0.01 mg/kg intratracheally 2 hours before ovalbumin challenge): 134 ± 26; MAX: Contraction at maximal Ach concentration relative to control (mean ± SEM) ([2]; 1.0 mg/kg intratracheally 2 hours before ovalbumin challenge): 116 ± 37; number of PAS(+) cells as percent of total number of cells (average ± SEM) [3, 5]: 15.0 ± 2.7%; number of PAS(+) cells as percent of total number of cells (average ± SEM) [3, 6]: 6.3 ± 1.5%; IC50 ([4]; read-out: Average IC50): 163 nM; IC50 ([4]; read-out: IC 50 (μg/ml) Average ± SEM (n) (converted)): 216 nM
